# Assay results as given in patent US20260240159A1, “HERBICIDAL COMPOSITIONS” (SYNGENTA CROP PROTECTION AG, priority 2023, published 2026).
# Legend:
# Assay in all cases: Post-emergence glasshouse herbicidal efficacy, percentage damage to plant
# Assay type in all cases: in vivo
# Details in all cases: after 14 days
# [1] = tested on: Alopecurus myosuroides (ALOMY)
# Excerpt: (§1) When active ingredients are combined, the activity to be expected (E) for any given active ingredient combination obeys the so-called Colby Formula and can be calculated as follows (Colby, S. R., Calculating synergistic and antagonistic responses of herbicide combination, Weeds, Vol. 15, pages 20-22; 1967): • ppm=milligrams of active ingredient (a.i.) per liter • X=% action by first active ingredient using p ppm of the active ingredient • Y=% action by second active ingredient sing q ppm of the active ingredient.
# (§2) According to Colby, the expected action of active ingredients A+B using p+q ppm of active ingredient is represented by the following formula: […]
# (§3) If the action actually observed (O) is greater than the expected action E then the action of the combination is super-additive, i.e. there is a synergistic effect. In mathematical terms, synergism corresponds to a positive value for the difference of (O-E). In the case of purely complementary addition of activities (expected activity), said difference (O-E) is zero. A negative value of said difference (O-E) signals a loss of activity compared to the expected activity.
# (§4) Biological Efficacy Tests Seeds of a variety of test species are sown in standard soil in pots (Ipomoea hederacea (IPHOE), Alopecurus myosuroides (ALOMY), Lolium perenne (LOLPE), Echinochloa crus-galli (ECHCG), and Setaria faberi (SETFA)), and cultivated under controlled conditions in a glasshouse (at 24/16° C., day/night; 14 hours light; 65% humidity), the plants are sprayed with an aqueous spray solution derived from the dissolution of the test compound or composition in acetone and IF50 (11.12% Emulsogen EL360 TM+44.44% N-methylpyrrolidone+44.44% Dowanol DPM glycol ether) which was then diluted to the required concentration using 0.2% Genapol X080 (CAS No. 9043-30-5) in water as the diluent. Test compounds or compositions are applied at the rates stated. The test plants are then grown in a glasshouse under controlled conditions in a glasshouse (at 24/16° C., day/night; 14 hours light; 65% humidity) and watered twice daily. After 14 days, the test is evaluated for the percentage damage caused to the plant (100=total damage to plant; 0=no damage to plant), and the result are shown below in tables B1 to B5.
# [2] = tested on: Echinochloa crus-galli (ECHCG)
# Excerpt: as §1, §2, §3, §4
# [3] = tested on: Ipomoea hederacea (IPOHE)
# Excerpt: as §1, §2, §3, §4
# Lolium perenne (LOLPE) = tested on: Lolium perenne (LOLPE)
# Excerpt: as §1, §2, §3, §4
# Setaria faberi (SETFA) = tested on: Setaria faberi (SETFA)
# Excerpt: as §1, §2, §3, §4
smiles,measurement,setting,value
CCc1cccc(C)c1N(C(=O)CCl)[C@@H](C)COC [S-metolachlor],Observed Activity (%),[1]; S-metolachlor 18.75 g/Ha alone,0.0%
same,Observed Activity (%),[1]; S-metolachlor 37.5 g/Ha alone,10.0%
same,Observed Activity (%),[1]; S-metolachlor 75 g/Ha alone,0.0%
same,Observed Activity (%),[1]; S-metolachlor 150 g/Ha alone,27.5%
same,Observed Activity (%),[1]; S-metolachlor 300 g/Ha alone,45.0%
same,Observed Activity (%),[2]; S-metolachlor 18.75 g/Ha alone,75.0%
same,Observed Activity (%),[2]; S-metolachlor 37.5 g/Ha alone,85.0%
same,Observed Activity (%),[2]; S-metolachlor 75 g/Ha alone,85.0%
same,Observed Activity (%),[3]; S-metolachlor 62.5 g/Ha alone,5.0%
same,Observed Activity (%),[3]; S-metolachlor 125 g/Ha alone,7.5%
same,Observed Activity (%),Lolium perenne (LOLPE); S-metolachlor 18.75 g/Ha alone,45.0%
same,Observed Activity (%),Lolium perenne (LOLPE); S-metolachlor 37.5 g/Ha alone,60.0%
same,Observed Activity (%),Lolium perenne (LOLPE); S-metolachlor 75 g/Ha alone,70.0%
same,Observed Activity (%),Lolium perenne (LOLPE); S-metolachlor 150 g/Ha alone,67.5%
same,Observed Activity (%),Lolium perenne (LOLPE); S-metolachlor 300 g/Ha alone,80.0%
same,Observed Activity (%),Setaria faberi (SETFA); S-metolachlor 37.5 g/Ha alone,72.5%
same,Observed Activity (%),Setaria faberi (SETFA); S-metolachlor 75 g/Ha alone,82.5%
same,Observed Activity (%),Setaria faberi (SETFA); S-metolachlor 150 g/Ha alone,85.0%
CCOC(=O)C1(C)CC(c2cc(-n3c(=O)cc(C(F)(F)F)n(C)c3=O)c(F)cc2Cl)=NO1 (centres unmarked) [(Ia)],inhibition at 1.875 g/ha,"[1]; Alopecurus myosuroides, 336 h, (Ia) 1.875 g/Ha alone, read-out: Observed Activity (%)",10%
same,inhibition at 3.75 g/ha,"[1]; Alopecurus myosuroides, 336 h, (Ia) 3.75 g/Ha alone, read-out: Observed Activity (%)",27.5%
same,inhibition at 7.5 g/ha,"[1]; Alopecurus myosuroides, 336 h, (Ia) 7.5 g/Ha alone, read-out: Observed Activity (%)",42.5%
same,inhibition at 15 g/ha,"[1]; Alopecurus myosuroides, 336 h, (Ia) 15 g/Ha alone, read-out: Observed Activity (%)",60%
same,inhibition at 1.875 g/ha,"[2]; Echinochloa crus-galli, 336 h, (Ia) 1.875 g/Ha alone, read-out: Observed Activity (%)",15%
same,inhibition at 3.75 g/ha,"[2]; Echinochloa crus-galli, 336 h, (Ia) 3.75 g/Ha alone, read-out: Observed Activity (%)",37.5%
same,inhibition at 7.5 g/ha,"[2]; Echinochloa crus-galli, 336 h, (Ia) 7.5 g/Ha alone, read-out: Observed Activity (%)",99%
same,inhibition at 0.9375 g/ha,"[3]; Ipomoea hederacea, 336 h, (Ia) 0.9375 g/Ha alone, read-out: Observed Activity (%)",84.8%
same,inhibition at 1.875 g/ha,"Lolium perenne (LOLPE); Lolium perenne, 336 h, (Ia) 1.875 g/Ha alone, read-out: Observed Activity (%)",0%
same,inhibition at 3.75 g/ha,"Lolium perenne (LOLPE); Lolium perenne, 336 h, (Ia) 3.75 g/Ha alone, read-out: Observed Activity (%)",12.5%
same,inhibition at 7.5 g/ha,"Lolium perenne (LOLPE); Lolium perenne, 336 h, (Ia) 7.5 g/Ha alone, read-out: Observed Activity (%)",42.5%
same,inhibition at 15 g/ha,"Lolium perenne (LOLPE); Lolium perenne, 336 h, (Ia) 15 g/Ha alone, read-out: Observed Activity (%)",50%
same,inhibition at 1.875 g/ha,"Setaria faberi (SETFA); Setaria faberi, 336 h, (Ia) 1.875 g/Ha alone, read-out: Observed Activity (%)",55%
same,inhibition at 3.75 g/ha,"Setaria faberi (SETFA); Setaria faberi, 336 h, (Ia) 3.75 g/Ha alone, read-out: Observed Activity (%)",67.5%
